The structures appear in SMILES notation.

In one data set the test system is MOR. The conditions noted are these: read-out: IC50 in the GPI bioassay; cited from earlier work.
For data set [1] the following is noted: cited from earlier work.
Data set [2] deals with T1, human MOR (Homo sapiens, UniProt P35372).
Data set [3] addresses T1, human MOR. The source holds these as a separate data set.
In a further data set the target is rat MOR. On the set-up: method as in PMID 2537427. The conditions noted are these: rat brain tissue; cited from earlier work.

T1 sequence (P35372 whole entry): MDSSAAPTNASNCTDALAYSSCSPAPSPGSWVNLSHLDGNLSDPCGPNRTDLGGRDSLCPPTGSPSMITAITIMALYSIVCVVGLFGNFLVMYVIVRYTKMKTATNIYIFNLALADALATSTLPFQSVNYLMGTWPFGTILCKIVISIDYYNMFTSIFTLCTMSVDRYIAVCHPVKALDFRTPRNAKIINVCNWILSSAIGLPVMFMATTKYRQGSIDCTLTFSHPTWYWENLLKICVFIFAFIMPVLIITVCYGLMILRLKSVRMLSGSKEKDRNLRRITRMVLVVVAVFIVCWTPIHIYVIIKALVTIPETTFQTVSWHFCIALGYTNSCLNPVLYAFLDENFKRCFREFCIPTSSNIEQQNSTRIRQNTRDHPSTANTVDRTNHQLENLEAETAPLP

Take `Cc1cc(O)cc(C)c1C[C@H](N)C(=O)N[C@H](CCCNC(=N)N)C(=O)N[C@H]1Cc2ccccc2CN(CCC(N)=O)C1=O` [KGOP01]: in the data set on MOR, the IC50 – broadly, the concentration that gives 50% inhibition – was 0.8 nM. Moreover, the “BBB crossing / CNS entry” value in data set [1] is “can enter the CNS”. Besides, on human MOR [2], the “enhanced MOR agonist potency versus [Dmt^1]DALDA” value came to 5 fold. The EC50 (commonly the midpoint of the concentration-response curve) on human MOR [2] (read-out: Agonist Activity EC50) worked out at 0.1 ± 0.02 nM. In addition, on human MOR [3] (relative to DAMGO), the “better MOR affinity than DAMGO” value was found to be 13 fold. The “increase in MOR affinity versus [Dmt^1]DALDA” value on human MOR [3] (relative to [Dmt^1]DALDA) is reported as “ca. 2 fold”.
Regarding `NCCCC[C@H](NC(=O)[C@H](Cc1ccccc1)NC(=O)[C@@H](CCCN=C(N)N)NC(=O)[C@@H](N)Cc1ccc(O)cc1)C(N)=O` [DALDA, H-Tyr-D-Arg-Phe-Lys-NH2], in data set [1], the “BBB crossing / CNS entry” value is “does not cross the BBB”. In addition, the inhibition constant (Ki) (in general, a measure of affinity in units of concentration, obtained from inhibition or displacement) on rat MOR was 1.69 nM.

These data come from PMC7248707 (Molecules, 2020).
